Experimental data from US12473291B2 (priority 2019, dated 2025).
Where two headings read alike, the source gives them in different places.

Experiments:
KM mice = experiment: animal or person; format: in vivo; conditions: for ED50: Mus musculus
SD rats = experiment: animal or person; format: in vivo; conditions: for ED50: Rattus norvegicus
[1] = KM mice, single tail vein injection at 2×ED50, time from disappearance to recovery of righting reflex
[2] = KM mice, single tail vein injection at 2×ED50, time from recovery of righting reflex to free crawling
[3] = KM mice (male, 18-22 g), injection via the tail vein, disappearance of righting reflex, read-out: ED50
[4] = SD rats (male, 220-300 g), injection via the tail vein, disappearance of righting reflex, read-out: ED50
[5] = SD rats, single tail vein injection at 2×ED50, time from disappearance to recovery of righting reflex
[6] = SD rats, single tail vein injection at 2×ED50, time from recovery of righting reflex to free crawling

SMILES	2ED50 duration (KM mice; [1]) [min]	2ED50 recovery time (KM mice; [2]) [min]	Quality of recovery (KM mice; KM mice, tail vein injection)	ED50 (KM mice; [3]) [mg/kg]	ED50 (SD rats; [4]) [mg/kg]	2ED50 duration (SD rats; [5]) [min]	2ED50 recovery time (SD rats; [6]) [min]	Quality of recovery (SD rats; SD rats, tail vein injection)	ED50 (KM mice) [mg/kg]	2ED50 duration (KM mice; mouse, in vivo) [min]	2ED50 recovery time (KM mice; mouse, in vivo) [min]	Quality of recovery (KM mice; mouse, in vivo)	ED50 (SD rats) [mg/kg]	2ED50 duration (SD rats; rat, in vivo) [min]	2ED50 recovery time (SD rats; rat, in vivo) [min]	Quality of recovery (SD rats; rat, in vivo)
Cc1cnc2n1-c1cc(Br)c(Br)cc1C(c1ccccn1)=N[C@H]2CCC(=O)OC1(C(=O)OOC2CC(Cl)C2)CC1 (some centres unmarked) [Example 64]	3.09	2.12	+++ (“+++” means 3-5 min)	24.1	2.7	3.15	2.18	++ (“++” means 1-3 min)								
CCOC(CCC(C)(C)OC(=O)CC[C@@H]1N=C(c2ccccn2)c2cc(Br)cc(Cl)c2-n2c(C)cnc21)C(=O)OC (stereo partly drawn) [Example 65, Methyl 5-((3-((4S)-8-bromo-10-chloro-1-methyl-6-(pyridine-2-yl)-4H-benzo [f]imidazo[1,2-a][1,4]diazapin-4-yl)propionyl)oxy)-2-ethoxy-5-methylcaproate]	3.4	2.04	++ (“++” means 1-3 min)	31.2	6.3	3.25	2.29	++++ (“++++” means 5-10 min)								
Cc1c(Br)cc2c(c1Cl)-n1c(C)cnc1[C@H](CCC(=O)OC(C)(C)NC(=O)OC1CCC1)N=C2c1ccccn1 [Example 66]	3.14	2.35	+++ (“+++” means 3-5 min)	30.4	4.8	4.02	2.17	++ (“++” means 1-3 min)								
COC(=O)C(CC(F)C(C)(C)OC(=O)CC[C@@H]1N=C(c2ccccn2)c2cc(Br)c(OC)cc2-n2c(C)cnc21)OC (stereo partly drawn) [Example 67, Methyl 5-((3-((4S)-8-bromo-9-methoxy-1-methyl-6-(pyridine-2-yl)-4H-benzo [f]imidazo[1,2-a][1,4]diazapin-4-yl)propionyl)oxy)-4-fluoro-2-methoxy-5-hexanoate adipate]	2.58	2.38	++ (“++” means 1-3 min)	31.7	6.9	3.18	3.01	+++ (“+++” means 3-5 min)								
CCC(CC)OC(=O)OC(OC(=O)CC[C@@H]1N=C(c2ccccn2)c2cc(Cl)c(OC(F)(F)F)cc2-n2c(C)cnc21)C1CC(F)C(CC)C1 (stereo partly drawn) [Example 68, (3-Ethyl-4-fluorocyclopentyl) (((pentanyl-3-yloxy)carbonyl)oxy)methyl 3-((4S)-8-chloro-1-methyl-6-(pyridine-2-yl)-9-(trifluoromethoxy)-4H-benzo[f]imidazo[1,2-a][1,4]diazapin-4-yl) propionate L-aspartate]	3.09			28.9	5.9	4.28										
CCOC(=O)C1(OC(=O)CC[C@@H]2N=C(c3ccccn3)c3cc(Cl)c(Cl)cc3-n3c(C)cnc32)CC1 [Example 69, Ethyl 1-((3-((4S)-8,9-dichloro-1-methyl-6-(pyridine-2-yl)-4H-benzo[f]imidazo[1,2-a][1,4]diaza-4-yl)propionyl)oxy) cyclopropane-1-carboxylate benzoic acid]									23.8	3.45	2.38	++++ (key: “+” means <1 mm; “++” means 1-3 min; “+++” means 3-5 min; “++++” means 5-10 min; “+++++” means >10 mm)	6.1	3.16	2.48	++ (key: “+” means <1 mm; “++” means 1-3 min; “+++” means 3-5 min; “++++” means 5-10 min; “+++++” means >10 mm)
COC(=O)OCOC(=O)CC[C@@H]1N=C(c2ccccn2)c2cc(Cl)c(F)cc2-n2c(C)cnc21 [Example 70, ((Methoxycarbonyl)oxy)methyl 3-((4S)-8-chloro-9-fluoro-1-methyl-6-(pyridine-2-yl)-4H-benzo[f]imidazo [1,2-a][1,4]diaza-4-ylpropionate borate]									26.7	3.27	2.54	+++ (key: “+” means <1 mm; “++” means 1-3 min; “+++” means 3-5 min; “++++” means 5-10 min; “+++++” means >10 mm)	4.6	3.56	2.57	+++ (key: “+” means <1 mm; “++” means 1-3 min; “+++” means 3-5 min; “++++” means 5-10 min; “+++++” means >10 mm)
CCOC(=O)OCOC(=O)CC[C@@H]1N=C(c2ccccn2)c2cc(Cl)cc(F)c2-n2c(C)cnc21 [Example 71, ((Ethoxycarbonyl)oxy)methyl 3-((4S)-8-chloro-10-fluoro-1-methyl-6-(pyridine-2-yl)-4H-benzo[f]imidazo [1,2-a][1,4]diaza-4-yl)propionate 2-hydroxypropane-1,2,3-tricarboxylate]									28.2	3.09	2.36	++ (key: “+” means <1 mm; “++” means 1-3 min; “+++” means 3-5 min; “++++” means 5-10 min; “+++++” means >10 mm)	4.8	3.21	2.36	+ (key: “+” means <1 min; “++” means 1-3 min; “+++” means 3-5 min; “++++” means 5-10 min; “+++++” means >10 min)
CCCOC(=O)OCOC(=O)CC[C@@H]1N=C(c2ccccn2)c2c(ccc(Br)c2F)-n2c(C)cnc21 [Example 72, ((Propoxycarbonyl)oxy)methyl 3-((4S)-8-bromo-7-fluoro-1-methyl-6-(pyridine-2-yl)-4H-benzo[f]imidazo [1,2-a][1,4]diaza-4-ylpropionate sulfonate]	3.12	2.48	+++ (“+++” means 3-5 min)	32.5	4.9	4.01	2.43	++ (“++” means 1-3 min)								
COC(=O)C(OC(=O)CC[C@@H]1N=C(c2ccccn2)c2cc(Br)c(OC(F)(F)F)c(C)c2-n2c(C)cnc21)C1CCSC1 (stereo partly drawn) [Example 74, 2-methoxy-2-oxo-1-(tetrahydrothiophene-3-yl)ethyl 3-((4S)-8-bromo-1,10-dimethyl-6-(pyridine-2-yl)-9-(trifluoromethoxy)-4H-benzo[f]imidazo[1,2-a][1,4]diazapin-4-yl)propionate stearate]	3.42	2.17	++ (“++” means 1-3 min)	24.5	5.7	2.67	2.54	+++ (“+++” means 3-5 min)								
CCCOC(=O)C1(OC(=O)CC[C@@H]2N=C(c3ccccn3)c3c(cc(OC(F)(F)F)c(Cl)c3C)-n3c(C)cnc32)CC1 [Example 75]	3.53	1.58	+++ (“+++” means 3-5 min)	29.1	5.8	2.26	2.15	+++ (“+++” means 3-5 min)								
Cc1cc2c(c(C)c1C)C(c1ccccn1)=N[C@@H](CCC(=O)OCC(=O)OC(C)C)c1ncc(C)n1-2 [Example 76, 2-Isopropoxy-2-oxoethyl-3-(((4S)-1,7,8,9-tetramethyl-6-(pyridine-2-yl)-4H-benzo[f]imidazo[1,2-a][1,4]diaza-4-ylpropionate phosphate]	3.28	2.49	++++ (“++++” means 5-10 min)	27.8	6.3	2.47	2.23	+++ (“+++” means 3-5 min)								
CCOC(=O)C(C)(C)OC(=O)CC[C@@H]1N=C(c2ccccn2)c2c(cc(C)c(Cl)c2C)-n2c(C)cnc21 [Example 77, Ethyl 2-((3-((4S)-8-chloro-1,7,9-trimethyl-6-(pyridine-2-yl)-4H-benzo[f]imidazo[1,2-a][1,4]diazapin-4-yl)propionyl)oxy)-2-methylpropionate 2-hydroxy-1-naphthoate]	3.28	2.39	+++ (“+++” means 3-5 min)	30.2	6.1	2.38	2.47	+++ (“+++” means 3-5 min)								
Cc1c(Cl)c(C(F)(F)F)cc2c1C(c1ccccn1)=N[C@@H](CCC(=O)OC(C)C(=O)OC(C)C)c1ncc(C)n1-2 (stereo partly drawn) [Example 78, 1-Isopropoxy-1-oxopropane-2-yl3-((4S)-8-chloro-1,7-dimethyl-6-(pyridine-2-yl)-9-(trifluoromethyl)-4H-benzo[f]imidazo[1,2-a][1,4]diaza-4-ylpropionate nicotinate]									28.2	3.39	1.36	++ (key: “+” means <1 mm; “++” means 1-3 min; “+++” means 3-5 min; “++++” means 5-10 min; “+++++” means >10 mm)	6.2	2.55	2.38	++ (key: “+” means <1 mm; “++” means 1-3 min; “+++” means 3-5 min; “++++” means 5-10 min; “+++++” means >10 mm)
COC(=O)C1(OC(=O)CC[C@@H]2N=C(c3ccccn3)c3cc(Cl)c(C)c(C)c3-n3c(C)cnc32)CC1 [Example 79, 1-((3-((4S)-8-chloro-1,9,10-trimethyl-6-(pyridine-2-yl)-4H-benzo[f]imidazo[1,2-a][1,4]diaza-4-yl)propionyl)oxy) cyclopropane-1-carboxylate 1-naphthoate]	3.45	1.38	+++ (“+++” means 3-5 min)	31.3	6.6	2.48	2.19	+++ (“+++” means 3-5 min)								
